How the values were obtained:
[1] = test system: Candida albicans ATCC 10231; test: Zone of inhibition assay with impregnated polyurethane foam discs; type: cell-based
Procedure: To evaluate antimicrobial properties of polyurethane foam samples infused with the various chlorhexidine/fatty acid salts, a zone of inhibition assay was performed. In this assay, 1.4% (w/v) of chlorhexidine acetate, chlorhexidine caprate, chlorhexidine laurate, chlorhexidine myristate, chlorhexidine palmitate and chlorhexidine stearate solutions in methanol were prepared. A supply of 8 mm discs were punched out of a sheet of polyurethane foam (Rynel medical grade polyurethane foam) with biopsy punches (Miltex Kai). Several discs were placed in each of six 50 ml centrifuge tubes. Approximately 5 ml of each of the different methanol/chlorhexidine/fatty acid salt solutions was added to each respective tube. The discs were centrifuged for 5 minutes to remove any air bubbles and soaked for 1 hr to infuse the foam discs with the respective chlorhexidine/fatty acid salt. Infused discs were transferred to clean centrifuge tubes and vacuum dried at 25° C. for 24 hrs to remove any residual solvents. Initial concentrations of salts, impregnated into the punches, were determined by dissolving the impregnated foams and by high pressure liquid chromatography (HPLC) analysis using an Agilent Eclipse XDB-CN 3u 4.6×150 mm column with initial mobile phase=65% DI water/0.2% trifluoroacetic acid (TFA): 35% Acetonitrile/0.2% TFA. Chlorhexidine absorbance was read at 253 nm and concentration was calculated via a chlorhexidine calibration curve. […] To perform the zone of inhibition assay on the impregnated polyurethane foam discs, agar plates were prepared by mixing 11 g Mueller-Hinton cation-adjusted broth and 1.5 g agarose in 500 ml DI water. The agar was autoclaved for 15 minutes at 121° C., 15 psi. 10 ml of the still hot, liquid agar was pipetted onto petri dishes. The challenge organism, Candida albicans ATCC 10231, was cultivated in Trypticase soy broth, standard microbiological growth medium (TSB). Sterile cotton swabs were dipped into the undiluted culture and the plated agar was fully inoculated with swabs. The 8 mm polyurethane foam discs were transferred daily to a freshly inoculated agar for 9 days. The zone of inhibition (ZOI) was measured using calipers. Actual ZOI was measured by subtracting the diameter of the foam (when wet) from the zone measured and dividing by 2. The results are presented in Table 6, with a graphical representation of the ZOI in FIG. 2;

[2] = 90% THF+10% Methanol
From the text: Chlorhexidine diacetate, Chlorhexidine dodecanoate and chlorhexidine palmitate were loaded into silicone tubing by first dissolving the chlorhexidine salt in a 90% THF+10% Methanol solution. The tubing was then immersed in this solution for one day where it swelled and chlorhexidine salt diffused into the polymer matrix. The impregnated piece of tubing was removed and then vacuum dried to remove all volatile solvent.

[3] = Rate of release of chlorhexidine/fatty acid salts from coated polyurethane tubes into DI water; type: physicochemical; conditions: for Cumulative release of the chlorhexidine/fatty acid salts from the coated polyurethane tubes: 1 cm coated tube in DI water, 37° C.
Procedure: A solution of each respective chlorhexidine/fatty acid salt was prepared and used to infuse a sample of elastomeric material. To perform the test, individual samples, 8 cm pieces of polyurethane tube containing a colorant, were surface dip coated in respective solutions of the chlorhexidine/fatty acid salts. The solutions were prepared as follows: 8.6 g of Tecoflex (Noveon, Cleveland, Ohio) was dissolved in 174 g of Tetrahydrofuran and methanol. 5.88 g of chlorhexidine acetate, chlorhexidine laurate, chlorhexidine myristate, chlorhexidine palmitate and chlorhexidine stearate were individually dissolved into the polymer-solvent mixture. The samples were immersed into the solvent-polymer-salt mixture and then dried at room temperature, evaporating the solvent. A polymeric coating was produced on the surface of the tubes. The amounts of chlorhexidine/fatty acid salt adhered per cm of the tube was measured (Table 2) by exhaustively extracting the salt and measuring UV absorbance at 253 nm relative to controls: For each of the samples, the rate of release of chlorhexidine/fatty acid salts into an aqueous solution was determined. To perform the rate of release test, 1 cm from each of the coated polyurethane tubes, were submerged in DeIonized (DI) water and incubated at 37° C. for a period of 28 days to determine the rate of release of the salts from the respective 1 cm samples of coated polyurethane tubing. The water was collected and replaced with fresh water after approximately 2 hours. The water was again collected and replaced with fresh water after the first day and every seven days thereafter. The amount of chlorhexidine/fatty acid salt in the collected water was measured with an Agilent 8453 UV-Vis Diode Array Detector with a manual setup using a cuvette w/path length of 1 cm. Chlorhexidine absorbance was read at 253 nm and concentration was calculated via a calibration curve developed using standards of 1, 5, 10, 20, 30, 35, and 40 μg/mL chlorhexidine acetate in DI Water. The percentage of chlorhexidine/fatty acid salt released from the sample into an aqueous media (percent release) was calculated according to the following equation: Percent release=(cumulative release at that time period/initial content)*100.

[4] = Incorporation of chlorhexidine salts into silicone tubing (swelling impregnation, extraction, HPLC); type: physicochemical; conditions: one day, equivalent mass of chlorhexidine base extracted;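 note: columns differ by chlorhexidine salt concentration in the impregnation solution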
Procedure: Chlorhexidine diacetate, Chlorhexidine dodecanoate and chlorhexidine palmitate were loaded into silicone tubing by first dissolving the chlorhexidine salt in a 90% THF+10% Methanol solution.
Impregnated chlorhexidine was extracted from the tubing by immersing in an excess of THF to fully swell it and then adding an equal volume of water to extract the chlorhexidine salt. The quantity of chlorhexidine was determined by previously enumerated HPLC method. It is reported below for different concentration impregnation solutions in terms of the equivalent mass of chlorhexidine base extracted: […]

## N=C(NCCCCCCNC(=N)NC(=N)Nc1ccc(Cl)cc1)NC(=N)Nc1ccc(Cl)cc1.Nc1ccc(P(=O)(O)O)cc1.Nc1ccc(P(=O)(O)O)cc1 [Chlorhexidine Palmitate, chlorhexidine dipalmitate]
[1]; Day 1, daily transfer to fresh agar
  ZOI produced by impregnated polyurethane foam punches against Candida albicans: 14 mm
[1]; Day 2, daily transfer to fresh agar
  ZOI produced by impregnated polyurethane foam punches against Candida albicans: 21 mm
[1]; Day 3, daily transfer to fresh agar
  ZOI produced by impregnated polyurethane foam punches against Candida albicans: 19 mm
[1]; Day 4, daily transfer to fresh agar
  ZOI produced by impregnated polyurethane foam punches against Candida albicans: 14 mm
[1]; Day 7, daily transfer to fresh agar
  ZOI produced by impregnated polyurethane foam punches against Candida albicans: 11 mm
[1]; Day 8, daily transfer to fresh agar
  ZOI produced by impregnated polyurethane foam punches against Candida albicans: 14 mm
[1]; Day 9, daily transfer to fresh agar
  ZOI produced by impregnated polyurethane foam punches against Candida albicans: 15 mm
[2]
  Solubility in the swelling impregnation solvent mixture (in words): soluble at higher concentrations
[3]; Day 1
  Cumulative release of the chlorhexidine/fatty acid salts from the coated polyurethane tubes: 28 g
[3]; Day 7
  Cumulative release of the chlorhexidine/fatty acid salts from the coated polyurethane tubes: 79 g
[3]; Day 14
  Cumulative release of the chlorhexidine/fatty acid salts from the coated polyurethane tubes: 112 g
[3]; Day 21
  Cumulative release of the chlorhexidine/fatty acid salts from the coated polyurethane tubes: 132 g
[3]; Day 28
  Cumulative release of the chlorhexidine/fatty acid salts from the coated polyurethane tubes: 140 g
[3]; FIG. 1, 28 days in DI water
  Release from the coated sample over the test (in words): continually released at an appreciable rate throughout the duration of the test
[3]; from 21 to 28 days
  Amount released from the coated sample over the 7 day period: 8 µg
[4]; 1% impregnation solution in 90% THF+10% Methanol
  Salt content in silicone elastomeric medical article: 133 µg/cm
[4]; 3% impregnation solution in 90% THF+10% Methanol
  Salt content in silicone elastomeric medical article: 205 µg/cm
[4]; 6% impregnation solution in 90% THF+10% Methanol
  Salt content in silicone elastomeric medical article: 356 µg/cm
[4]; 10% impregnation solution in 90% THF+10% Methanol
  Salt content in silicone elastomeric medical article: 366 µg/cm
[4]; 20% impregnation solution in 90% THF+10% Methanol
  Salt content in silicone elastomeric medical article: 407 µg/cm

Reference: US20100069854A1, “Elastomeric Devices Containing Chlorhexidine/Fatty Acid Salts Made From Fatty Acids of 12 to 18 Carbons” (priority 2008, published 2010)
